Data reported in patent US4188398A, “Method for treating epilepsy” (priority 1978, dated 1980).
Entries after “also recorded” stand apart in the source; their conditions may differ.

Legend:
animal or person = test: animal or person
Description: The general effect of the proposed preparation was tested on white mice, rats and rabbits.

[1] = Acute toxicity, single intraperitoneal administration, 48 hours (Litchfield and Wilcockson); format: in vivo, white mice
Description: The acute toxicity of the proposed preparation was tested on white mice weighing 19 to 20 g, by single intraperitoneal administrations of 1.5- and 10-percent colloidal solutions of the anticonvulsant in a 0.5-percent solution of carboxymethyl cellulose. The animals were observed during 48 hours. In order to establish the median lethal dose (LD50), the experimental data was statistically processed using the Litchfield and Wilcockson techniques. Milontin and zarontin were analyzed in the same way.

[2] = Daily administration for eight weeks, rats (chronic toxicity); format: in vivo; settings: 400 mg/kg per os once a day
Description: The effects of daily administrations of the proposed anticonvulsant, carried out over prolonged periods of time, were studied on rabbits and rats.
A colloidal solution of the proposed antispasmodic was administered per os in doses of 400 mg/kg to six rats. The drug was introduced through a metal probe once a day for eight weeks.
Every day the animals' weight and body temperature were measured, and their general state was assessed. Once a week, a general blood analysis was made, the urine was analyzed for protein, blood and biliary pigments. Upon the end of the experiment, the animals were killed (the rabbits were destroyed by air embolism; the rats were decapitated). The liver, heart, kidneys, spleen, lungs and different parts of the small intestine and stomach of the freshly killed animals were taken for pathomorphological investigation.

[3] = Neurotoxicity: rightening, gait, stance, muscle tone and equilibrium tests; format: in vivo; settings: P = 0.05
Description: The neurotoxicity levels were determined by conducting rightening, gait, stance, muscle tone and equilibrium tests.

[4] = Nicotine-induced convulsions; format: in vivo, mice
Description: (§3) The anticonvulsant action of the proposed preparation was tested on mice weighing 19 to 25 g and rats weighing 120 to 150 g by conducting maximum electroshock, corazol, strychnine, camphor, nicotine and arecoline tests.

Arecoline tremor test = test: Arecoline tremor test; parameters: species or system mice and rats; settings: in vivo
[5] = Duration of activity, corazol test; format: in vivo, white mice
Description: Corazol convulsions and maximum electroshock tests were carried out to determine the duration of the preparation's activity. Two series of experiments were made on white mice weighing 20 to 25 g. In the first series, the preparation was introduced intraperitoneally, whereas in the second series it was introduced into the stomach through a metal probe.
The anticonvulsive action of effective doses of the proposed preparation (200 mg/kg were introduced intraperitoneally, and 400 mg/kg were introduced per os) was tested every 30 minutes on separate groups of mice, each including 100 animals. The tests were continued until complete termination of the anticonvulsive effect.

[6] = Duration of urethane-induced sleep; format: in vivo
Source text: (§1) Nembutal was used as a trunk narcotic, and urethane as a cortical narcotic.

[7] = Duration of Nembutal-induced sleep; format: in vivo; settings: P = 0.05; Nembutal 40 mg/kg; proposed preparation 100 mg/kg, zarontin 150 mg/kg, milontin 100 mg/kg
Source text: as §1

[8] = Other pharmacological properties (vegetative nervous system, blood pressure, breathing, neuromuscular conduction); format: in vivo; settings: intraperitoneally or per os
[9] = Single versus multiple administration, antagonism to corazol (addiction / habit forming); format: in vivo
[10] = Teratogenic and embryotoxic tests (A. M. Chernukh's method); format: in vivo, mongrel white female rats; settings: 400 mg/kg per os, rats
Description: Teratogenic and embryotoxic tests of the proposed preparation were carried out by using A. M. Chernukh's method on 35 mongrel white female rats weighing 150 to 200 g. The preparation was introduced per os in a dose of 400 mg/kg.
On the twentieth day of pregnancy, all the animals were decapitated.

[11] = Mutagenicity, threonine locus of Bacillus coli; format: cell-based; settings: bacillus coli, 0.2-mole concentration
Description: (§2) The preparation was further studied with regard to the threonine locus of Bacillus coli at a 0.2-mole concentration; the object was subjected to treatment during 24 hours; the survival rate of the cells was between 42 and 91 percent.

[12] = system: threonine locus of Bacillus coli; test: Mutagenicity, threonine locus of Bacillus coli; format: cell-based; settings: 0.2-mole concentration, 24 hours
Description: as §2

[13] = system: lysin locus of actinomyces; test: Mutagenicity, lysin locus of actinomyces; format: cell-based; settings: same doses
actinomyces = test: Mutagenicity, Air-Shibalsky technique, actinomyces; format: cell-based
[14] = Clinical study in epilepsy patients; format: in vivo, human (patients)
Description: The therapeutic effectiveness of the preparation was evaluated while treating different forms of epilepsy.
The patient's age was between 4 and 56 years with the period of sickness ranging from 2 to 18 years. The different forms of the disease fell into the following categories according to clinical and encephalographic data: polymorphous fits with a deep temporal or frontotemporal focus of epileptic activity; psychomotor fits of pseudo absentia epileptica; generalized tonico-clonic convulsive fits; true absentia epileptica with myoclonic atonic fits and cerebrovascular diseases of the central nervous system, resulting in temporal epileptic fits and polymorphous fits.
The duration of the course of treatment varied from 3 months to 3 years.
The preparation of the present invention was administered per os 3 to 6 times a day; each time a patient was given a tablet of 0.25 g so that the daily dose of the preparation was 0.75 to 1.5 g. […] In a group of 40 patients, examination of other electroencephalographic convulsive manifestations was accompanied by studying focal paroxysmal phenomena in the temporal lobes.

[15] = Maximum electroshock test
Description: as §3

[16] = corazol, 200 mg/kg intraperitoneally

Description for Corazol convulsion test: as §3

In the case of `CC(C)Oc1ccc(C2CC(=O)NC2=O)cc1` (stereo not drawn) [proposed preparation, α-/para-isopropoxyphenyl/succinimide], the minimal effective dose (animal or person; Mus musculus, ip, read-out: least dose to produce a noticeable effect on the animals' behavior) is reported as 200 mg/kg, the “effect on general state of the animals per os versus intraperitoneal” value (animal or person; per os, animals (mice, rats, rabbits)) is reported as “not as marked as in the case of intraperitoneal administration” and the “dose inducing lying position and sleep” value (animal or person; white mice, intraperitoneal) is reported as “more than 1,000 milligrams per kilogram of weight”. The relative toxicity ([1]; compared with milontin and zarontin) was “the least toxic of all; also recorded: more than two times less toxic than milontin; also recorded: one and half times less toxic than zarontin”, the LD50 ([1]; intraperitoneal, white mice, P=0.05, 2880 min, listed as Preparation in accordance with invention) was 2,150 (1,930 to 2,390) mg/kg and the LD50 at 48 h ([1]; mouse, in vivo, ip, intraperitoneal, white mice, P=0.05) was 2150 mg/kg. For the same compound, the “organ changes, macroscopic and microscopic histochemical investigation” value [2] was “no changes were observed”, the “weight, body temperature, general state, blood and urine composition” value [2] was “no changes were registered in the weight, body temperature and general state of the animals” and the “TD50 (mean neurotoxic dose)” value ([3]; listed as Preparation according to invention) was 720(588 to 883) mg/kg. The TD50 ([3]; in vivo, read-out: TD50 (mean neurotoxic dose)) was 720 mg/kg, the “effect on intensity of nicotine-induced convulsions” value ([4]; 200 mg/kg, mice) was “markedly reduced the intensity of convulsions” and the “effect on nicotine-induced convulsions and tremor” value ([4]; 300 mg/kg) was “effectively prevents convulsions and tremor”. The ED50 ([4]; Mus musculus) was 190 mg/kg, the “effect on arecoline tremor” value (Arecoline tremor test) was “does not hinder the development of arecoline tremor” and the “duration of effect, oral versus intraperitoneal” value ([5]; corazol test) was “lasts longer in the case of oral administration”. For the same compound, the “time after which effect totally disappears” value [5, 16] was “three”, the “time of maximum anticonvulsive effect” value [5, 16] was 60 min and the “time after which activity is gradually brought down” value ([5]; corazol, 400 mg/kg per os) was “six”. The “time after which effect totally disappears” value ([5]; corazol, 400 mg/kg per os) was “about eight”, the “time for which maximum level is maintained” value ([5]; corazol, 400 mg/kg per os) was “four and a half” and the “time of maximum anticonvulsive effect” value ([5]; corazol, 400 mg/kg per os) was 90 min. For the same compound, the “Average Duration of Urethane-Induced Sleep” value ([6]; P = 0.05, urethane 1,000 mg/kg, proposed preparation 100 mg/kg, zarontin 150 mg/kg, milontin 100 mg/kg) was 3.2 ± 1.3 min, the “effect upon the duration of urethane-induced sleep” value ([6]; in words) was “no effect upon the duration of urethane-induced sleep” and the “Average Duration of Nembutal-Induced Sleep” value [7] was 99 ± 67.6 min. The “blood pressure, breathing and neuromuscular conduction” value [8] was “no changes are observed in the blood pressure, breathing and neuromuscular conduction”, the “effect on the vegetative nervous system” value [8] was “no effect upon the vegetative nervous system” and the habit forming properties [9] was “devoid of habit forming properties”. For the same compound, the development of pregnancy [10] was “the pregnancy developed normally”, the “abnormalities in embryos' growth, internal organs and skeletons” value ([10]; twentieth day of pregnancy) was “did not reveal any abnormalities in their growth” and the fold induction at 24 h, 200000 µM ([11]; read-out: revertants relative to control (spontaneous mutation)) was 1.8. The viability at 24 h, 200000 µM ([11]; read-out: survival rate of the cells) was 42 to 91%, the genetic action [12] was “extremely weak genetic action” and the revertants induced [12] was “no more than 17 revertants”. For the same compound, the mutagenous effect [13] was “weak mutagenous effect”, the revertants induced [13] was “no more than 41 revertants” and the “revertants relative to control” value [13] was “thrice as great as that of the control”. The mutagenous effect (actinomyces) was “no mutagenous effect”, the “insomnia and disturbed sleep” value ([14]; administered shortly before bedtime) was “almost all the patients complained of insomnia and disturbed sleep” and the “itching of the skin, weakness and dizziness” value ([14]; after 3 or 4 days of treatment) was “very few cases”. For the same compound, the “time to discontinuation or lower frequency of seizures” value ([14]; after beginning of treatment, dose of 0.25 g) was 7 to 8 days, the “therapeutic effect in convulsive forms of epilepsy” value ([14]; cases of diffusive electroencephalographic pathology) was “week therapeutic effect” and the “effect in secondary generalized seizures” value ([14]; clinically and electroencephalographically established focal changes) was “ineffective”. For the same compound, the “depressing action upon the central nervous system” value ([14]; compared with other antiepileptic drugs) was “not as intense as that of other antiepileptic drugs”, the “patients in whom fits discontinued” value ([14]; group of 40 patients, after 10 to 14 days, per os 0.75 to 1.5 g daily) was 18 patients and the “anticonvulsive effect versus milontin and celontin in psychomotor and convulsive fits” value ([14]; human, in vivo) was “somewhat more effective”. For the same compound, the “effect on minor epileptic fits associated with anterior trunkal localization of the epileptic focus” value ([14]; human, in vivo) was “the most effective in stopping minor epileptic fits”, the “increased frequency of fits” value ([14]; human, in vivo) was “never resulted in an increased frequency of fits” and the nausea ([14]; human, in vivo) was “Some patients complained of nausea”. For the same compound, the “potentiating effect upon convulsive paroxysms” value ([14]; human, in vivo) was “absence of a potentiating effect upon convulsive paroxysms”, the “weakness or dizziness in the day time” value ([14]; human, in vivo) was “does not cause weakness or dizziness in the day time” and the sleep ([14]; last dose 3 or 4 hours before bedtime) was “normal sleep was soon restored”. The “allergic manifestations or somatic abnormalities” value ([14]; patients) was “no allergic manifestations or somatic abnormalities were observed”, the “effect on ambivalence of reactions, ability for mental work and night sleep” value ([14]; patients) was “improves the ambivalence of reactions and the ability for mental work; night sleep becomes deeper and longer” and the “effect on mood, affectivity, anxieties, stresses” value ([14]; patients) was “improves the general mood of patients, reduces affectivity, eliminates anxieties and relieves stresses”. For the same compound, the “effect upon aggressive, quarrelsome and importune epileptics” value ([14]; patients) was “soothing effect”, the “laboratory analyses of blood and urine” value ([14]; patients) was “no pathological changes” and the “pathologic changes in the blood system” value ([14]; patients) was “no pathologic changes in the blood system”. For the same compound, the “therapeutic effect in polymorphous paroxysms and fits of the temporal type” value ([14]; per os 0.75 to 1.5 g daily) was “the most effective in cases of polymorphous paroxysms and fits of the temporal type”, the “memory of actual events” value ([14]; psychologic examination) was “improves the memory of actual events” and the “reduction of frequency of fits” value ([14]; remaining 22 of 40 patients, per os 0.75 to 1.5 g daily) was “reduced from 3 to 4 a week to 2 to 3 a month”. The sedative effect ([14]; single doses of 0.5 g) was “weak and short-lived sedative effect”, the toxic neurological complications ([14]; uninterrupted courses up to eight months) was “does not result in any toxic neurological complications” and the ED50 (Corazol convulsion test; Mus musculus, read-out: ED50 (corazol)) was 86 mg/kg. For the same compound, the “protection index I=TD50/ED50, Corazol” value (Corazol convulsion test; corazol) was 8.38, the “protection index PI (mean lethal dose / mean effective dose), Corazol” value (Corazol convulsion test; corazol) was 25 and the ED50 ([15]; Mus musculus, read-out: ED50 (Electroshock)) was 77 mg/kg. For the same compound, the “protection index I=TD50/ED50, Electroshock” value ([15]; electroshock) was 9.35, the “protection index PI (mean lethal dose / mean effective dose), Electroshock” value ([15]; electroshock) was 28 and the “anticonvulsant activity in maximum electroshock test” value ([15]; in words) was “anticonvulsant activity was only exhibited by the proposed preparation and milontin”.
